Test results as given in patent publication US20220016277A1, “MACROCYCLIC COMPLEXES OF RADIONUCLIDES AND THEIR USE IN RADIOTHERAPY OF CANCER” (Cornell University, priority 2018, published 2022).

Experiment: Organ distribution of ^225Ac complexes following intravenous injection in mice
Format: in vivo, C57BL/6 mice
Method: In Vivo Biodistribution of ^225Ac Complexes of Macropa and DOTA. All experiments were approved by the Institutional Animal Care Committee (IACC) of the University of British Columbia and were performed in accordance with the Canadian Council on Animal Care Guidelines. A total of 9 female C57BL/6 mice (6-8 weeks old, 20-25 g) were used for the biodistribution study of each radiometal complex, n=3 for each time point.
Macropa (100 μL of a 1 mg/mL solution in NH4OAc) was diluted with 387 μL of NH4OAc (1 M, pH 7), and an aliquot (203 μL) of ^225Ac(NO3)3 (˜157 kBq) was then added; the pH of this solution was adjusted to 6.5-7 by the addition of 1 M NaOH (210 μL, trace metal grade). After 5 min at ambient temperature, the reaction solution was analyzed by TLC (0.4 M pH 4 sodium citrate as the eluent), which confirmed >95% radiochemical yield. The reaction was allowed to proceed overnight, and the radiochemical yield was again confirmed to be >95% the following morning. At this time, mice were anesthetized by 2% isoflurane, and approximately 100 μL (10-15 kBq) of the [^225Ac(macropa)]^+ complex were injected into the tail vein of each mouse. After injection, mice were allowed to recover and roam freely in their cages, and were euthanized by CO2 inhalation at 15 min, 1 h, or 5 h (n=3 at each time point) post-injection. Blood was collected by cardiac puncture and placed into an appropriate test tube for scintillation counting. Tissues collected included heart, liver, kidneys, lungs, small intestine, large intestine, brain, bladder, spleen, stomach, pancreas, bone, thyroid, tail, urine, and feces. Tissues were weighed and then counted with a calibrated gamma counter (Packard, Cobra II model 5002) using three energy windows: 60-120 keV (window A), 180-260 keV (window B), and 400-480 keV (window C). Counting was performed both immediately after sacrifice and after 7 days; counts were decay corrected from the time of injection and then converted to the percentage of injected dose (% ID) per gram of tissue (% ID/g). […]
The biodistribution studies of [^225Ac(DOTA)]^− and ^225Ac(NO3)3 were carried out as described above for [^225Ac(macropa)]^+, with the following modifications. [^225Ac(DOTA)^− was prepared by adding ^225Ac(NO3)3 (338 μL, 1.1 MBq) to a solution of DOTA (100 μg, 20 mg/mL in H2O) in NH4OAc (467 μL, 0.15 M, pH 7). The pH of the solution was adjusted to 7 using NH4OAc (150 μL, 1 M, pH 7) and the solution was heated at 85° C. for 45 min. RCY >99% was confirmed by TLC as described above. [^225Ac(DOTA)]^− was diluted with saline to a final concentration of 0.05 MBq/100 μL, and 100 μL were injected into each mouse. ^225Ac(NO3)3 (˜58 μL, 0.4 MBq) was diluted and injected in the same manner as [^225Ac(DOTA)]^−. One mouse that was to be euthanized at the 5 h time point in the [^225Ac(DOTA)]^− study died shortly after injection. In the same manner, one mouse that was to be euthanized at the 1 h time point in the ^225Ac(NO3)3 study died.
The in vivo stability [^225Ac(macropa)]^+ was examined by comparing its biodistribution to those of ^225Ac(NO3)3 and [^225Ac(DOTA)]^−. C57BL/6 mice were injected via tail vein with 10-50 kBq of each radiometal complex and were sacrificed after 15 min, 1 h, or 5 h. The amount of ^225Ac retained in each organ was quantified by gamma counting and reported as the percent of injected dose per gram of tissue (% ID/g). The results of these studies are compiled in Tables 1-3. Inadequate stability of an ^225Ac complex leading to the loss of radioisotope in vivo is manifested by the accumulation of ^225Ac in the liver, spleen, and bone of mice.^[11,12,32] […] The biodistribution profile of [^225Ac(macropa)]^+ (FIG. 3B) differs markedly from that of ^225Ac(NO3)3. […] Its biodistribution profile was similar to that of [^225Ac(DOTA)]^− (FIG. 3C), which has been previously shown to retain ^225Ac^3+ in vivo.^[7]

[1] = 15 min post i.v. injection, energy window A (60-120 keV)
[2] = 15 min post i.v. injection, energy window B (180-260 keV)
[3] = 15 min post i.v. injection, energy window C (400-480 keV)
[4] = 1 h post i.v. injection, energy window A (60-120 keV)
[5] = 1 h post i.v. injection, energy window B (180-260 keV)
[6] = 1 h post i.v. injection, energy window C (400-480 keV)
[7] = 5 h post i.v. injection, energy window A (60-120 keV)
[8] = 5 h post i.v. injection, energy window B (180-260 keV)
[9] = 5 h post i.v. injection, energy window C (400-480 keV)
[10] = C57BL/6 mice, i.v., 15 min to 5 h

O=[N+]([O-])[O-].O=[N+]([O-])[O-].O=[N+]([O-])[O-].[225Ac] [^225Ac(NO3)3]
Organ distribution: bladder [1]: 1.477 % ID/g
Organ distribution: blood [1]: 40.966 % ID/g
Organ distribution: bone (femur + joint) [1]: 2.764 % ID/g
Organ distribution: brain [1]: 0.614 % ID/g
Organ distribution: feces [1]: 0.240 % ID/g
Organ distribution: heart [1]: 8.557 % ID/g
Organ distribution: kidneys [1]: 10.468 % ID/g
Organ distribution: large intestines [1]: 1.116 % ID/g
Organ distribution: liver [1]: 22.899 % ID/g
Organ distribution: lungs [1]: 12.757 % ID/g
Organ distribution: pancreas [1]: 2.366 % ID/g
Organ distribution: small intestines [1]: 2.002 % ID/g
Organ distribution: spleen [1]: 22.733 % ID/g
Organ distribution: stomach [1]: 2.348 % ID/g
Organ distribution: tail [1]: 7.459 % ID/g
Organ distribution: thyroids [1]: 4.391 % ID/g
Organ distribution: urine [1]: 5.527 % ID/g
Organ distribution: bladder [2]: 1.6996 % ID/g
Organ distribution: blood [2]: 41.5628 % ID/g
Organ distribution: bone (femur + joint) [2]: 2.7487 % ID/g
Organ distribution: brain [2]: 0.6536 % ID/g
Organ distribution: feces [2]: 0.3857 % ID/g
Organ distribution: heart [2]: 8.3605 % ID/g
Organ distribution: kidneys [2]: 9.6424 % ID/g
Organ distribution: large intestines [2]: 1.1570 % ID/g
Organ distribution: liver [2]: 23.6091 % ID/g
Organ distribution: lungs [2]: 12.9714 % ID/g
Organ distribution: pancreas [2]: 2.2821 % ID/g
Organ distribution: small intestines [2]: 1.9641 % ID/g
Organ distribution: spleen [2]: 24.0497 % ID/g
Organ distribution: stomach [2]: 2.3704 % ID/g
Organ distribution: tail [2]: 8.0722 % ID/g
Organ distribution: thyroids [2]: 9.6295 % ID/g
Organ distribution: urine [2]: 5.0951 % ID/g
Organ distribution: bladder [3]: 1.9351 % ID/g
Organ distribution: blood [3]: 42.3521 % ID/g
Organ distribution: bone (femur + joint) [3]: 3.4560 % ID/g
Organ distribution: brain [3]: 0.6755 % ID/g
Organ distribution: feces [3]: 0.4896 % ID/g
Organ distribution: heart [3]: 9.0992 % ID/g
Organ distribution: kidneys [3]: 14.2266 % ID/g
Organ distribution: large intestines [3]: 1.5716 % ID/g
Organ distribution: liver [3]: 24.1147 % ID/g
Organ distribution: lungs [3]: 14.4797 % ID/g
Organ distribution: pancreas [3]: 2.4405 % ID/g
Organ distribution: small intestines [3]: 2.0956 % ID/g
Organ distribution: spleen [3]: 25.4263 % ID/g
Organ distribution: stomach [3]: 2.4232 % ID/g
Organ distribution: tail [3]: 9.1381 % ID/g
Organ distribution: thyroids [3]: 3.5934 % ID/g
Organ distribution: urine [3]: 19.8282 % ID/g
Organ distribution: bladder [4]: 0.9047 % ID/g
Organ distribution: blood [4]: 20.8234 % ID/g
Organ distribution: bone (femur + joint) [4]: 2.4707 % ID/g
Organ distribution: brain [4]: 0.2995 % ID/g
Organ distribution: feces [4]: 0.2189 % ID/g
Organ distribution: heart [4]: 4.4261 % ID/g
Organ distribution: kidneys [4]: 7.2170 % ID/g
Organ distribution: large intestines [4]: 0.6035 % ID/g
Organ distribution: liver [4]: 39.8269 % ID/g
Organ distribution: lungs [4]: 8.2412 % ID/g
Organ distribution: pancreas [4]: 2.1771 % ID/g
Organ distribution: small intestines [4]: 1.5594 % ID/g
Organ distribution: spleen [4]: 34.8831 % ID/g
Organ distribution: stomach [4]: 1.6211 % ID/g
Organ distribution: tail [4]: 5.7939 % ID/g
Organ distribution: thyroids [4]: 2.5988 % ID/g
Organ distribution: urine [4]: 4.5194 % ID/g
Organ distribution: bladder [5]: 0.8092 % ID/g
Organ distribution: blood [5]: 21.4460 % ID/g
Organ distribution: bone (femur + joint) [5]: 2.7705 % ID/g
Organ distribution: brain [5]: 0.3247 % ID/g
Organ distribution: feces [5]: 0.3300 % ID/g
Organ distribution: heart [5]: 4.5832 % ID/g
Organ distribution: kidneys [5]: 6.8770 % ID/g
Organ distribution: large intestines [5]: 0.5629 % ID/g
Organ distribution: liver [5]: 41.0995 % ID/g
Organ distribution: lungs [5]: 8.4426 % ID/g
Organ distribution: pancreas [5]: 2.1579 % ID/g
Organ distribution: small intestines [5]: 1.5192 % ID/g
Organ distribution: spleen [5]: 37.1540 % ID/g
Organ distribution: stomach [5]: 1.5867 % ID/g
Organ distribution: tail [5]: 6.4201 % ID/g
Organ distribution: thyroids [5]: 5.7426 % ID/g
Organ distribution: urine [5]: 7.0564 % ID/g
Organ distribution: bladder [6]: 2.2929 % ID/g
Organ distribution: blood [6]: 11.3736 % ID/g
Organ distribution: bone (femur + joint) [6]: 2.7213 % ID/g
Organ distribution: brain [6]: 0.4402 % ID/g
Organ distribution: feces [6]: 0.1122 % ID/g
Organ distribution: heart [6]: 3.3464 % ID/g
Organ distribution: kidneys [6]: 6.2070 % ID/g
Organ distribution: large intestines [6]: 0.4366 % ID/g
Organ distribution: liver [6]: 23.6180 % ID/g
Organ distribution: lungs [6]: 5.2078 % ID/g
Organ distribution: pancreas [6]: 1.8508 % ID/g
Organ distribution: small intestines [6]: 3.5548 % ID/g
Organ distribution: spleen [6]: 38.1082 % ID/g
Organ distribution: stomach [6]: 2.3350 % ID/g
Organ distribution: tail [6]: 9.0877 % ID/g
Organ distribution: thyroids [6]: 0.0000 % ID/g
Organ distribution: urine [6]: 104.9103 % ID/g
Organ distribution: bladder [7]: 1.4947 % ID/g
Organ distribution: blood [7]: 1.9886 % ID/g
Organ distribution: bone (femur + joint) [7]: 3.5460 % ID/g
Organ distribution: brain [7]: 0.0452 % ID/g
Organ distribution: feces [7]: 0.9445 % ID/g
Organ distribution: heart [7]: 1.3450 % ID/g
Organ distribution: kidneys [7]: 4.6910 % ID/g
Organ distribution: large intestines [7]: 0.6479 % ID/g
Organ distribution: liver [7]: 59.8156 % ID/g
Organ distribution: lungs [7]: 4.1871 % ID/g
Organ distribution: pancreas [7]: 0.4874 % ID/g
Organ distribution: small intestines [7]: 1.3704 % ID/g
Organ distribution: spleen [7]: 62.9614 % ID/g
Organ distribution: stomach [7]: 2.6131 % ID/g
Organ distribution: tail [7]: 23.4055 % ID/g
Organ distribution: thyroids [7]: −2.7052 % ID/g
Organ distribution: urine [7]: 4.8267 % ID/g
Organ distribution: bladder [8]: 1.5234 % ID/g
Organ distribution: blood [8]: 2.0018 % ID/g
Organ distribution: bone (femur + joint) [8]: 3.8533 % ID/g
Organ distribution: brain [8]: 0.0290 % ID/g
Organ distribution: feces [8]: 1.0201 % ID/g
Organ distribution: heart [8]: 1.3948 % ID/g
Organ distribution: kidneys [8]: 3.8752 % ID/g
Organ distribution: large intestines [8]: 0.6744 % ID/g
Organ distribution: liver [8]: 62.0765 % ID/g
Organ distribution: lungs [8]: 4.3379 % ID/g
Organ distribution: pancreas [8]: 0.4455 % ID/g
Organ distribution: small intestines [8]: 1.2201 % ID/g
Organ distribution: spleen [8]: 65.9117 % ID/g
Organ distribution: stomach [8]: 2.5322 % ID/g
Organ distribution: tail [8]: 25.4744 % ID/g
Organ distribution: thyroids [8]: −4.6044 % ID/g
Organ distribution: urine [8]: 3.3142 % ID/g
Organ distribution: bladder [9]: 3.4975 % ID/g
Organ distribution: blood [9]: 2.1769 % ID/g
Organ distribution: bone (femur + joint) [9]: 3.5851 % ID/g
Organ distribution: brain [9]: 0.0430 % ID/g
Organ distribution: feces [9]: 0.8535 % ID/g
Organ distribution: heart [9]: 1.2018 % ID/g
Organ distribution: kidneys [9]: 4.2061 % ID/g
Organ distribution: large intestines [9]: 1.0259 % ID/g
Organ distribution: liver [9]: 54.1727 % ID/g
Organ distribution: lungs [9]: 5.4923 % ID/g
Organ distribution: pancreas [9]: 0.4643 % ID/g
Organ distribution: small intestines [9]: 1.2922 % ID/g
Organ distribution: spleen [9]: 62.2357 % ID/g
Organ distribution: stomach [9]: 2.0358 % ID/g
Organ distribution: tail [9]: 28.4443 % ID/g
Organ distribution: thyroids [9]: −0.4455 % ID/g
Organ distribution: urine [9]: 5.8548 % ID/g
blood clearance and excretion (in words) [10]: slow blood clearance and excretion
organ accumulation (in words) [10]: large accumulation in the liver and spleen
